Assay results as given in patent publication US10722518B2, “Oxazine derivative for use in the treatment or prevention of cerebral amyloid angiopathy” (Novartis AG, priority 2016, dated 2020).
Read-outs that look alike come from different tables or passages of the source.

Columns and labels:
[1] = 3-month dose-ranging safety and tolerability study; assay type: in vivo, human; details: once-daily doses of 2, 10, 35 and 85 mg over three months; healthy elderly
From the text: This study is listed in ClinicalTrials.gov under the NCT02576639 Identifier code.
The primary purpose of this study was to expand on previous safety and tolerability data obtained over 2-week and 4-week duration in the first in human study and thereby allow initiation of future long-term efficacy trials in subjects at risk of AD and CAA. In addition, data relevant for Pharmacokinetic/Pharmacodynamic modeling was obtained in order to support dose selection decisions for future efficacy studies.

[2] = 3-month dose-ranging study: plasma pharmacokinetics on Day 91; assay type: in vivo; details: human, oral, read-out: expected plasma Cmax,ss
[3] = First-in-human study: safety and tolerability; assay type: in vivo; details: healthy elderly subjects ≥60 years
From the text: The purpose of this study was to determine the single and multiple maximum tolerated dose of Compound 1 and to assess the pharmacokinetic/pharmacodynamic (PK/PD) relationship using Aβ in CSF as primary PD biomarker.

APP23 mice [4] = assay: 13-week oral safety study in aged APP23 mice: MRI of microhaemorrhagic lesions; assay type: in vivo, mouse; details: aged female APP23 mice
Protocol: The APP23 mouse strain was chosen because of the existence of microhaemorrhages in aged animals. Females were chosen because of having a much higher overall Aβ load, a higher Aβ40/Aβ42 ratio and thus more pronounced microhaemorrhages.
β1 antibody administration: intraperitoneal, once weekly. Dosage volume: 0.15 mL/mouse (maximum 10 mL/kg)
Animal species and strain: Mouse; transgenic APP23 (B6.D2-Tg(Thy1App)23/1Sdz)
Sex: Females (females have a much higher overall Aβ load, a higher Aβ40/Aβ42 ratio and thus more pronounced microhaemorrhages)
Age: Approximately 17-18 months (at start of dosing)
For MRI investigations, mice were anesthetized with 1.5% isoflurane (Abbott, Cham, Switzerland) in a mixture of oxygen/N2O (2:1) administered via a face mask and placed in a Plexiglas cradle. […] Respiration was monitored throughout the acquisitions. […]
Acquisition and analysis of the MRI data were performed by a blinded investigator. Sites in the cortex and thalamus presenting signal attenuation with a minimum diameter of 70 μm (lesions) were analyzed throughout the whole brain. To ensure that the same site (lesion) was not counted multiple times, its presence was carefully controlled over several consecutive slices from the 3D data set. The total volume of the lesions was assessed using ImgTool, an IDL (Interactive Data Language Research Systems, Boulder, Colo., USA) based software. […]

[5] = Off-target binding or activity
[6] = 13-week oral safety study in aged APP23 mice: body weight; assay type: in vivo, mouse; details: chronic treatment, 13 weeks; aged female APP23 mice
Protocol: Body weight range: 26 to 36 g (at start of dosing)
Means and standard deviations (SD), standard error of the mean (SEM) and coefficient of variation (CV) as indicated accordingly were calculated and an Analysis of Variance (ANOVA) performed. For the analysis of body weights a 2way ANOVA with Turkey's multiple comparison test was performed using GraphPad Prism 6. ANOVA with random effects statistical analyses were performed on MRI data using Systat Version 13 (Systat Software, Inc., San Jose, Calif., USA).

Aβ40 = assay: Chronic treatment of APP23 mice: formic acid soluble Aβ40 in forebrain; assay type: in vivo, mouse; details: high Compound 1 treatment group
Protocol: Frozen mouse forebrains were weighed and homogenized in 9 volumes (w/v) of ice-cold TBS-Complete (20 mM Tris-HCl pH 7.4, 137 mM NaCl, 1× Complete [Protease Inhibitor Cocktail Tablets: 1 836 145, Roche Diagnostics GmbH, Penzberg, Germany]) by sonication (90% duty cycle, output control 5, 40-55 pulses, [Sonifier 450, Branson]). After homogenization several 50 μl aliquots were prepared for analysis and were stored at −80° C.
Fifty microliter of forebrain homogenate was mixed with 116.6 μl 100% formic acid, resulting in a final formic acid concentration of 70%. Samples were stored on ice and vortexed every 5 minutes. For neutralization, 50 μl of the mixture were pipetted into a new tube, and 950 μl of 1 M Tris base, containing 1× Complete Protease inhibitor, was added. Tubes were stored at room temperature overnight and then centrifuged for 15 minutes at 14000 rpm in an Eppendorf Microzentrifuge at 4° C. From the top layer, 100 μl are removed and mixed with 100 μl of 3% Blocker A solution (part of the MesoScale assay kit). This sample was either directly applied to the assay plate (dilution 1:1332) or further diluted in 1% Blocker A solution.
Amyloid-β42 increased more than Aβ40 (Aβ42/40 ratio increased by 55% in the vehicle group), in agreement with its higher aggregation propensity.

[7] = 13-week oral safety study in aged APP23 mice: plasma and brain concentrations of Compound 1 (toxicokinetics); assay type: in vivo; details: female, APP23, mouse, 0.3 g/kg food
Protocol: (§1) Sections of brain were collected at necropsy from all scheduled animals. […] Rest of the brain was fixed in 10% neutral-buffered formalin.
Blood was obtained from all the animals at necropsy. Approximately 0.3 mL of whole blood was collected after euthanasia from the vena cava into tubes containing EDTA as anticoagulant. The tubes were placed in ice water during the sampling period. Plasma was separated thereafter by centrifugation (10 min, 1270 G, +4° C.) and transferred to one uniquely labelled clear tube (1.8 mL NUNC 2D coded tubes from Thermo) and frozen at −70° C. or below.
About 100 to 200 mg of brain tissue were collected, weighed into 1.8 mL NUNC 2D coded tubes from Thermo, and frozen at −70° C. or below.

[8] = both, APOE4-TR, mouse, in vivo
Protocol: Vehicle or compound was given by oral administration in a volume of 10 ml/kg once. Vehicle: 0.1% Tween80 in 0.5% Methylcellulose in water.
The right brain was fixed in 4% paraformaldehyde, washed in PBS and then embedded in paraffin for possible future histological analyses.

APP23 mice [9] = assay: 13-week oral safety study in aged APP23 mice: post-mortem macroscopic and brain microscopic examination (H&E, Perls' Prussian blue); assay type: in vivo, mouse
From the text: as §1
Four brain sections were processed and stained with hematoxylin and eosin (H&E) and Perls' Prussian blue for hemosiderin deposits, levels 2, 3, 4, as described in Bolon B et al., 2013, and one additional slide at hypothalamus level (level 2′).
Procedure for brain collection: Cerebellum was separated from cerebrum. Remaining cerebrum (from the anterior to level 5) was transferred into formalin for pathology.
Brain sections stained with haematoxylin and eosin and with Perls' Prussian blue, were examined under a light microscope. The distribution, size and staining intensity of hemosiderin deposits in Perls' Prussian blue-stained sections were assessed based on the grading scheme in Table 37.

[10] = aged APP23 mice, brain, H&E, after 3 months treatment
[11] = aged APP23 mice, brain, H&E, after 3 months treatment, Grade 1 = minimal
[12] = aged APP23 mice, brain, H&E, after 3 months treatment, grade 2 = slight
[13] = aged APP23 mice, brain, after 3 months treatment
[14] = aged APP23 mice, brain, after 3 months treatment, Grade 1 = minimal
[15] = aged APP23 mice, brain, after 3 months treatment, grade 2 = slight

C[C@@]1(c2nc(NC(=O)c3ncc(C(F)(F)F)cc3Cl)ccc2F)CO[C@@](C)(C(F)(F)F)C(N)=N1 [Compound 1, N-(6-((3R,6R)-5-amino-3,6-dimethyl-6-(trifluoromethyl)-3,6-dihydro-2H-1,4-oxazin-3-yl)-5-fluoropyridin-2-yl)-3-chloro-5-(trifluoromethyl)picolinamide]
safety and tolerability [1]: safe and tolerated | Cmax ([2]; once daily dose of 15 mg): 70 to 170 ng/mL | Cmax ([2]; once daily dose of 50 mg): 200 to 500 ng/mL | safety and tolerability ([3]; 300 mg QD over two weeks): safe and tolerated | safety and tolerability ([3]; 750 mg single dose): safe and tolerated | total lesion volume detected by MRI (APP23 mice [4]; 1, 2 and 3 months of treatment): did not exacerbate lesion volumes | lesion numbers (mean±SEM) by MRI (APP23 mice [4]; month 3): 11.5±2.0 | off-target binding or activity [5]: no relevant off-target binding or activity | body weight [6]: did not lead to any change in body weight | reduction of deposited Aβ40 and 42 vs vehicle (Aβ40): around 80% | concentration at 13 weeks ([7]; brain (cerebellum, level 7), end of the study): 4030 ng/g | Kp at 96 day ([7]; brain / plasma, day 96, read-out: brain concentration compared to plasma, range): 2.2 to 6.1 | Kp at 13 weeks ([7]; brain / plasma, end of the study, read-out: average of the ratio brain over plasma): 3.3 | concentration at 13 weeks ([7]; plasma, end of the study): 1210 ng/mL | exposure reduction 4 h/24 h [8]: 2-5 fold | AUCbrain (AUC0-24 h) ([8]; 3 umol/kg): 8.67 µmol·h/kg | AUCbrain (AUC0-24 h) ([8]; 10 umol/kg): 15.83 µmol·h/kg | AUCbrain (AUC0-24 h) ([8]; 30 umol/kg): 49.82 µmol·h/kg | Blood vessel inflammation (APP23 mice [9]; 3 months treatment): least marked | mineralisation of plaques in the thalamus (APP23 mice [9]; 3 months treatment): no indication of an effect | thrombus formation in affected blood vessels or small areas of previous necrosis (infarct) (APP23 mice [9]; 3 months treatment): not | extent of plaque formation (APP23 mice [9]; 3 months treatment, compared to the other groups): appeared reduced in some | Amyloid plaques, % affected (APP23 mice [9]; [10]): 100% | Haemorrhage, % affected (APP23 mice [9]; [10]): 7% | Inflammation, vessel, % affected (APP23 mice [9]; [10]): 27% | Haemorrhage, number of animals with Grade 1 (APP23 mice [9]; [11]): 1 | Inflammation, vessel, number of animals with Grade 1 (APP23 mice [9]; [11]): 4 | Haemorrhage, number of animals with Grade 2 (APP23 mice [9]; [12]): 0 | Inflammation, vessel, number of animals with Grade 2 (APP23 mice [9]; [12]): 0 | Amyloid plaques, number of animals with Grade 2 (APP23 mice [9]; aged APP23 mice, brain, H&E, after 3 months treatment, grade 2 = slight (notably fewer plaques than controls)): 4 | Amyloid plaques, number of animals with Grade 3 (APP23 mice [9]; aged APP23 mice, brain, H&E, after 3 months treatment, grade 3 = moderate (extent in controls)): 11 | Haemosiderin (Perls' staining), % affected (APP23 mice [9]; [13]): 47% | Infarct, % affected (APP23 mice [9]; [13]): 0% | Mineralisation, % affected (APP23 mice [9]; [13]): 13% | Thrombus, % affected (APP23 mice [9]; [13]): 0% | Haemosiderin (Perls' staining), number of animals with Grade 1 (APP23 mice [9]; [14]): 7 | Infarct, number of animals with Grade 1 (APP23 mice [9]; [14]): 0 | Mineralisation, number of animals with Grade 1 (APP23 mice [9]; [14]): 2 | Thrombus, number of animals with Grade 1 (APP23 mice [9]; [14]): 0 | Haemosiderin (Perls' staining), number of animals with Grade 2 (APP23 mice [9]; [15]): 0 | Mineralisation, number of animals with Grade 2 (APP23 mice [9]; [15]): 0 | Thrombus, number of animals with Grade 2 (APP23 mice [9]; [15]): 0 | Haemosiderin (Perls' staining), number of animals with Grade 3 (APP23 mice [9]; aged APP23 mice, brain, after 3 months treatment, grade 3 = moderate): 0
